From ChEMBL document CHEMBL1201862, “PubChem BioAssay data set” (2004)
Active and inactive are the calls of the source.

Legend:
[1] = target: T1, High affinity choline transporter 1 (Homo sapiens, UniProt Q9GZV3); assay: human choline transporter blockers, potency – cell-based, 5-point CRC, membrane potential dye, dose response (AID 504840); format: functional
T1 sequence (Q9GZV3 whole entry): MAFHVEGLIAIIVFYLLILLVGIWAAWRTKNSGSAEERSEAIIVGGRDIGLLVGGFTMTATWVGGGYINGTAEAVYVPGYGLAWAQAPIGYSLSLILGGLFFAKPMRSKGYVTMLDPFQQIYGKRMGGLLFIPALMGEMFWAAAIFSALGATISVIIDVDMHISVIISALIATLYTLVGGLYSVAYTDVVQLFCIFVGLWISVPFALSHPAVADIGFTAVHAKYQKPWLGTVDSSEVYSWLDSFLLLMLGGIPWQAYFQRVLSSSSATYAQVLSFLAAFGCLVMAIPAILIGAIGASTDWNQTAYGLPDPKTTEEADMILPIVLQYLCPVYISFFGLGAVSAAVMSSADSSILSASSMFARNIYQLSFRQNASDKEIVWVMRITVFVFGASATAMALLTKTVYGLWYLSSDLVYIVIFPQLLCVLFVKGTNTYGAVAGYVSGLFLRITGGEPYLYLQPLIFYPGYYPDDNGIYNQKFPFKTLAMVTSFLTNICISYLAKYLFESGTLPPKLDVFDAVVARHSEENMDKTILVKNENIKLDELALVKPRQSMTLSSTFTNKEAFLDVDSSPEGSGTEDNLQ

Genome polyprotein = Genome polyprotein (dengue virus type 2, UniProt P29990); assay: flavivirus cap methylation enzyme inhibition – biochemical, confirmation dose response, primary screen (AID 588689); format: functional
[2] = target: Heat shock protein HSP 90-alpha (Homo sapiens, UniProt P07900); format: functional, organism-based
[3] = target: T2, Voltage-gated N-type calcium channel alpha-1B subunit/Amyloid beta A4 precursor protein-binding family A member 1 (Homo sapiens, UniProt Q00975+Q02410); format: protein assay
[4] = target: T2, Voltage-gated N-type calcium channel alpha-1B subunit/Amyloid beta A4 precursor protein-binding family A member 1; format: protein assay; remark: listed apart in the source
Cytochrome P450 2C9 = Cytochrome P450 2C9 (Homo sapiens, UniProt P11712)
Prothrombin = Prothrombin (Homo sapiens, UniProt P00734); assay: Thrombin 1536 HTS Dose Response Confirmation. [Related pubchem assays: 1046 (Thrombin 1536 HTS; hits were confirmed in this assay)]; format: functional
[5] = target: T3, Calpain-2 catalytic subunit (Sus scrofa, UniProt P43367); assay: m-calpain protease blockers, concentration series – biochemical, fluorogenic peptide substrate, dose response (AID 1420); format: functional
T3 sequence (P43367 whole entry): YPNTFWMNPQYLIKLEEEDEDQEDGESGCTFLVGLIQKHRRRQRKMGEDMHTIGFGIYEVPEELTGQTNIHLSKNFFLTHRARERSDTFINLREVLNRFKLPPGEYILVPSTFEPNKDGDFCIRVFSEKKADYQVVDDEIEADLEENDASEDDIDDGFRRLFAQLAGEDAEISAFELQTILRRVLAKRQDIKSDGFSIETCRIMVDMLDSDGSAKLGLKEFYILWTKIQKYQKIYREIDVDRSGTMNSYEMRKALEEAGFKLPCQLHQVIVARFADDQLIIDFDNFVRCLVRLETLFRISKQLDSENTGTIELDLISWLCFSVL

[6] = target: Voltage-dependent T-type calcium channel subunit alpha-1H (Homo sapiens, UniProt O95180); format: functional;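 also: channel activity triggered by adding a high calcium stimulation buffer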
Cytochrome P450 3A4 = Cytochrome P450 3A4 (Homo sapiens, UniProt P08684); details: Potency;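 also: confirmatory qHTS run detecting inhibitors and substrates of CYP3A4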
Coagulation factor XII = target: T4, Coagulation factor XII (Homo sapiens, UniProt P00748); format: functional;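 also: activated factor XIIa alpha cleaving a fluorogenic AMC peptide substrate; inhibitor potency from loss of enzyme activity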
T4 sequence (P00748 whole entry): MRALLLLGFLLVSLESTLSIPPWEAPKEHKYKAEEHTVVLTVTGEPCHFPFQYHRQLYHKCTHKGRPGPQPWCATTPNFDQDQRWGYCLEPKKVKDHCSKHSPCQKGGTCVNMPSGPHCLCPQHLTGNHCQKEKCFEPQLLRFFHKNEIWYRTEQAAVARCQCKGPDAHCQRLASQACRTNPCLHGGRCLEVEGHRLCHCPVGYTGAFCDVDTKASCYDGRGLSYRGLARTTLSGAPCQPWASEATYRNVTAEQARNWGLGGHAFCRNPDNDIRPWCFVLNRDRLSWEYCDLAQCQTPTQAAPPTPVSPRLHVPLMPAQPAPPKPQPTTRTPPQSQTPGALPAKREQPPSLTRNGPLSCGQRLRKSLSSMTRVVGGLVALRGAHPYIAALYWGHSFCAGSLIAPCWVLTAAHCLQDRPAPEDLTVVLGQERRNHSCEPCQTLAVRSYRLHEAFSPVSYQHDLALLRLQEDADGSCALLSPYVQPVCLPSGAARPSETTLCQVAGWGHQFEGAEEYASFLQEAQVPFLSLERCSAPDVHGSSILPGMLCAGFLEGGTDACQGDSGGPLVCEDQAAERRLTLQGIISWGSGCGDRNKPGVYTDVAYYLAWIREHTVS

HeLa = assay: ATP-based viability loss in HeLa cells – cell-based, CellTiter-Glo luminescence, cherry-pick samples, cytotoxicity control for MITF activator project, dose response (AID 540259); format: functional; details: Homo sapiens
[7] = target: T5, Adenosylmethionine-8-amino-7-oxononanoate aminotransferase (Mycobacterium tuberculosis, UniProt P9WQ81); assay: Mycobacterium tuberculosis BioA enzyme inhibitor Measured in Biochemical System Using Plate Reader - 2163-02_Inhibitor_Dose_CherryPick_Activity.; format: functional, Mycobacterium tuberculosis UT205
T5 sequence (P9WQ81 whole entry): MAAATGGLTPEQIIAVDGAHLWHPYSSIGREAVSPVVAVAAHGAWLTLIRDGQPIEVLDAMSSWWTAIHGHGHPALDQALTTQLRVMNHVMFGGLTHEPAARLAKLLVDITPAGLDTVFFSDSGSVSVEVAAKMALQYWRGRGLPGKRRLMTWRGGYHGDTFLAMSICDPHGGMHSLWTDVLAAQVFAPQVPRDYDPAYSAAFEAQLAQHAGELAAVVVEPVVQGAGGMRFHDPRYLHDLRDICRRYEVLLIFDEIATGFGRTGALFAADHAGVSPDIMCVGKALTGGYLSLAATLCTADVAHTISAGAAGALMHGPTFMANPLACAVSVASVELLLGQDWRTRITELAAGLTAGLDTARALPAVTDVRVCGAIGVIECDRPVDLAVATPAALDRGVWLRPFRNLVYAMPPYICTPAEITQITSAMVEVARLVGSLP

[8] = tested on: Streptococcus sp. 'group A'; assay: Streptococcus pyogenes SK(-)GAS viability under kanamycin – luminescence, BacTiterGlo, confirmation, counter-screen for streptokinase expression inhibitor project, dose response (AID 1900); format: functional, organism-based
Streptococcus = assay: GAS UMAA2166 growth inhibition – luminescence, BacTiterGlo, counter-screen for streptokinase expression inhibitor project, dose response (AID 1915); format: functional, organism-based;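 also: potency for reduction of bacterial viability or growth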
[9] = target: T6, RNA-binding protein pos-1 (Caenorhabditis elegans, UniProt G5EF15); assay: disruptors of C. elegans POS-1 RNA interaction – biochemical, fluorescence polarization, dose response (AID 1964);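 also: purified POS-1 fused to maltose binding protein made in E. coli; potency of compounds blocking POS-1 binding to fluorescent RNA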
T6 sequence (G5EF15 whole entry): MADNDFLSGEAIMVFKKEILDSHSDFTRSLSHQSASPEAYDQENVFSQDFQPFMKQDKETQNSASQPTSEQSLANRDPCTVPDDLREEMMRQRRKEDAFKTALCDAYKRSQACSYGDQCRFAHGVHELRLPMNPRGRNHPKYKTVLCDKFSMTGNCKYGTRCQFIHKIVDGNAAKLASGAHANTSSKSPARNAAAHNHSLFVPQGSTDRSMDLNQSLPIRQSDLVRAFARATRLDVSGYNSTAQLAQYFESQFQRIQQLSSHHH

[10] = target: T7, Zinc finger protein mex-5 (Caenorhabditis elegans, UniProt Q9XUB2); assay: potency of MEX-5 RNA-binding blockers – biochemical, C. elegans, fluorescence polarization, dose response (AID 1960)
T7 sequence (Q9XUB2 whole entry): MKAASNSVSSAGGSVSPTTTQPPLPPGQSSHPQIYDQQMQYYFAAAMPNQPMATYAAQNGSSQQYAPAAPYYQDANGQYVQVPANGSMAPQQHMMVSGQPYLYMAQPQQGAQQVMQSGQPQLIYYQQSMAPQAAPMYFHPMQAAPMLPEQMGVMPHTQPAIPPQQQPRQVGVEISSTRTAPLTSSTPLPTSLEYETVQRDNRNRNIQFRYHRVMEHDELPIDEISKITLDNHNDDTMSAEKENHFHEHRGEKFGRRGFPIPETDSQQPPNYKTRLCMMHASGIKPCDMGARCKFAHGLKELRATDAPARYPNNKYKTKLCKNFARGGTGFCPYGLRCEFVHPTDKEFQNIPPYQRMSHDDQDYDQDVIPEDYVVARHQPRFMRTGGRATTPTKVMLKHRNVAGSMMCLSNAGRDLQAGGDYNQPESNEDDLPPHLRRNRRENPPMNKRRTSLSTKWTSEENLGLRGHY

[11] = IGROV1 cell killing – plate reader, dry powder samples, PAX8 inhibitor project, dose response (AID 743043); format: functional, cell-based; details: IGROV-1
[12] = OVCAR8 cell viability loss – plate reader, dry powder samples, PAX8 project, dose response (AID 743197); format: functional, cell-based; details: OVCAR-8
Paired box protein Pax-8 = Paired box protein Pax-8 (Homo sapiens, UniProt Q06710); assay: PAX8 transcriptional activity inhibition in RMG-I – RMG-I cells, luciferase, cherry-pick, dose response (AID 687027); format: functional, cell-based;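 also: luciferase reporter driven by Pax8 target thyroperoxidase promoter measured by SteadyGlo luminescence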
H4 = assay: Luminescence Cell-Based Dose Response HTS to Identify Activators of 5'UTR Stem-Loop Driven Prion Protein mRNA Translation in H4 Neuroglioblastoma Cells. [Related pubchem assays: 1829 (Project Summary), 1814 (Primary HTS)]; format: functional; details: Homo sapiens
[13] = Luminescence Cell-Based Dose Response HTS to Identify Activators of Luciferase Translation or Activity in H4 […] Cells. [Related pubchem assays: 1829 (Project Summary), 1814 (Primary HTS)]; format: functional
[14] = Luminescence Cell-Based Dose Confirmation HTS to Identify Activators of 5'UTR Stem-Loop Driven Alpha-Synuclein mRNA Translation in H4 Neuroglioblastoma Cells. [Related pubchem assays: 1829 (Project Summary), 1814 (Primary HTS)]; format: functional

Sequence of Cytochrome P450 3A4 (P08684 whole entry): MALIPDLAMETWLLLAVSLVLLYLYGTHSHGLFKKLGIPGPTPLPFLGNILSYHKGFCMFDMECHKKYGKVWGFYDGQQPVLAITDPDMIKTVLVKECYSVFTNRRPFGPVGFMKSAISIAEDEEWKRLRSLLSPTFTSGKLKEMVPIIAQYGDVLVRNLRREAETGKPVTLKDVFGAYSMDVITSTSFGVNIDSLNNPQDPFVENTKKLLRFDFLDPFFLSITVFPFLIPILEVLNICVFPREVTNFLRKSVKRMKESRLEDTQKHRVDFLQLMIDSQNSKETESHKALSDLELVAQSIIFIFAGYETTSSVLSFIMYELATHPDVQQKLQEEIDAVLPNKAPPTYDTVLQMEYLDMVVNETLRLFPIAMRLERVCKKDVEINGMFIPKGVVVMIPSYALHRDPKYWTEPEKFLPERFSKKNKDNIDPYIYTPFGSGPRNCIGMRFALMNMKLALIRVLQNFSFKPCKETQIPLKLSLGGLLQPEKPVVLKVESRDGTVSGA
T2 sequence (Q00975 whole entry): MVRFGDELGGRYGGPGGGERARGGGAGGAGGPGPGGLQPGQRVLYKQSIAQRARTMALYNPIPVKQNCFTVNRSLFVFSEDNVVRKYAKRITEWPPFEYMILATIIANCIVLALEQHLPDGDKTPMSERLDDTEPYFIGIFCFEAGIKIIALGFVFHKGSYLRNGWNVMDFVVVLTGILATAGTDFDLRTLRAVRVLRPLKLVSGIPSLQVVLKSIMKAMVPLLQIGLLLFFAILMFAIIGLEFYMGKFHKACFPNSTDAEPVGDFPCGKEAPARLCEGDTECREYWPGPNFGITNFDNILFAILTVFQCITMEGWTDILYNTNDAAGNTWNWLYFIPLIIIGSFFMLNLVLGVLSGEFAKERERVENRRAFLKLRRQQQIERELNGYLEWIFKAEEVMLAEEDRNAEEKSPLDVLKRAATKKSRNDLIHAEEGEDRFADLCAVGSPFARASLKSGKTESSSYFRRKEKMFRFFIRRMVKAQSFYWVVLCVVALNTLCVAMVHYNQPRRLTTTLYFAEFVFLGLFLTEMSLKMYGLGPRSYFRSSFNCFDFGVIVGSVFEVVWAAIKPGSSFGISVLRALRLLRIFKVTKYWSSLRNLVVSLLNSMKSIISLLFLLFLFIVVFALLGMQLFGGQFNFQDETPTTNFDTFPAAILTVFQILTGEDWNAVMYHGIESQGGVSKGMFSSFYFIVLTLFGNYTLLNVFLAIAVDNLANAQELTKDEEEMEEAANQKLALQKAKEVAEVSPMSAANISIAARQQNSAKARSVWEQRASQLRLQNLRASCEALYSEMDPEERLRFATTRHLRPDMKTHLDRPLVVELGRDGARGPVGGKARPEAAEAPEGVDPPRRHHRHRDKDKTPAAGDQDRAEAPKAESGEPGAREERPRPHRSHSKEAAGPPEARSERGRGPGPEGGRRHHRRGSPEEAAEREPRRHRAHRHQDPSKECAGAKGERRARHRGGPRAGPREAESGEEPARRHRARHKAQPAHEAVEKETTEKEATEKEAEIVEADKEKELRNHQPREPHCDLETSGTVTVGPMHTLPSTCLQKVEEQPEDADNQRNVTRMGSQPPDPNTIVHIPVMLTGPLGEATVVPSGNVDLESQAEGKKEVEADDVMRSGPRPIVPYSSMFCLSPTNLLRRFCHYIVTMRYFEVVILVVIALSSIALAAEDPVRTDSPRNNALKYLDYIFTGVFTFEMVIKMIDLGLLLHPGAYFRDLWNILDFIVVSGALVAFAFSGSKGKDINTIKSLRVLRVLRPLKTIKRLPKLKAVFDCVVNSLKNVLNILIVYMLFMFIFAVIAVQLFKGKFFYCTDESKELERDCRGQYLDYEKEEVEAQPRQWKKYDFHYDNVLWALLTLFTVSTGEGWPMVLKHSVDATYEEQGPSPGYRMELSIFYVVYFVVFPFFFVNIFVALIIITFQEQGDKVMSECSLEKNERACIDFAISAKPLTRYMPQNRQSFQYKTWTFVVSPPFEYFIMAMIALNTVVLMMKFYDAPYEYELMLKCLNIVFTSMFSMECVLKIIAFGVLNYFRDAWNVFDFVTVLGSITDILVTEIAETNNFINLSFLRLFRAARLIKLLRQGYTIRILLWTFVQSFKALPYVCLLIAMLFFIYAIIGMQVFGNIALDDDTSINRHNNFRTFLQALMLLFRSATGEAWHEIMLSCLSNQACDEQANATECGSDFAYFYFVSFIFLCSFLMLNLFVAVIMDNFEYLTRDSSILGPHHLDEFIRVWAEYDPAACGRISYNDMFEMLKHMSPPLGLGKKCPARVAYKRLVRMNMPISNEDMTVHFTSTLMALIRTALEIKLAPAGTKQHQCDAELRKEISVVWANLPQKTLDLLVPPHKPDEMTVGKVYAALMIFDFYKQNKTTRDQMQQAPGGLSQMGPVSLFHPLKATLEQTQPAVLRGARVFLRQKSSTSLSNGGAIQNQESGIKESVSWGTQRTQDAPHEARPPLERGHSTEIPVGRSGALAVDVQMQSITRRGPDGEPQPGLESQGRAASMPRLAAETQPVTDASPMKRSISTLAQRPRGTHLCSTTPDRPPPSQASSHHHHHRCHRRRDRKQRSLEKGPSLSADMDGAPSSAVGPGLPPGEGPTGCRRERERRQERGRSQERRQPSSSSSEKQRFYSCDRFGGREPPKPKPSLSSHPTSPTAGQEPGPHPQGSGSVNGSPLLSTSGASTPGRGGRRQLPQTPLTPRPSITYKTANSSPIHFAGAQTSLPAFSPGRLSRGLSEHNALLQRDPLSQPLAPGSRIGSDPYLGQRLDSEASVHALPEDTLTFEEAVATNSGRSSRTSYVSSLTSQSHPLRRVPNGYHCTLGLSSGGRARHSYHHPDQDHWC
T2 sequence (Q02410 whole entry): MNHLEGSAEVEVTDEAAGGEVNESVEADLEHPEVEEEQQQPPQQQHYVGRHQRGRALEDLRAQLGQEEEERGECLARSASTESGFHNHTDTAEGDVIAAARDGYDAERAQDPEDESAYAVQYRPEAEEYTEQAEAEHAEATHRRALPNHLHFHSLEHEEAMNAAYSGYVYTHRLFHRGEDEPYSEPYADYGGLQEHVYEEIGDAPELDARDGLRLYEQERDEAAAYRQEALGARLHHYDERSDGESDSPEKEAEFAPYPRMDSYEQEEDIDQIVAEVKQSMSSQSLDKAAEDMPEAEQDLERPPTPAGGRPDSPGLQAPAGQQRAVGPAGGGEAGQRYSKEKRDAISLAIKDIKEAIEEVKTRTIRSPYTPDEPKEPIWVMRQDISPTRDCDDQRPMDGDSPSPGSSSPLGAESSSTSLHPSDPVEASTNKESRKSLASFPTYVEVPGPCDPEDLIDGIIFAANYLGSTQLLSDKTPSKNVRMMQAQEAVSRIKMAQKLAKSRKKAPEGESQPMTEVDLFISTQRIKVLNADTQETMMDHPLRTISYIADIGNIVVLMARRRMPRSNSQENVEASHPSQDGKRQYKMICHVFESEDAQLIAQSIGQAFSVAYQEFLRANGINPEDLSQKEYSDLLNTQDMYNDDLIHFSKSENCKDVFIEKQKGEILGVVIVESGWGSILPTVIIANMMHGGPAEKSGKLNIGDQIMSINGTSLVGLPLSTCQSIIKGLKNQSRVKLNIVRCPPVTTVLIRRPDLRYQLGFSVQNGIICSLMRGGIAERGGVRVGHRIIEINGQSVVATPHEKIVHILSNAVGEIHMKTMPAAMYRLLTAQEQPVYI
Sequence of Paired box protein Pax-8 (Q06710 whole entry): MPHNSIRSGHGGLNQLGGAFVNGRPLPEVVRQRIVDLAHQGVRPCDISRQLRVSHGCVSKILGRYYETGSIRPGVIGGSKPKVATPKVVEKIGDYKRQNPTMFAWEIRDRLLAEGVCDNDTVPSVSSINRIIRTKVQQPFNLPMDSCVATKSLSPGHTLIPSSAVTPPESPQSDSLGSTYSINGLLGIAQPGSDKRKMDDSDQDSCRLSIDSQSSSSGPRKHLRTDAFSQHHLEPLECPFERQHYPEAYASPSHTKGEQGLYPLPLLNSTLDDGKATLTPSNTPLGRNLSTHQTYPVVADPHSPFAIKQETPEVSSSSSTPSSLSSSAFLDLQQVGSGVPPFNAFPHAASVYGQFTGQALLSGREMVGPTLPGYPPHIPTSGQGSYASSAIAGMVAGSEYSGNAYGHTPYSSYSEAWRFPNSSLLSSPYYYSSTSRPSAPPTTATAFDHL
Sequence of Genome polyprotein (P29990 2492-3391 limits assumed): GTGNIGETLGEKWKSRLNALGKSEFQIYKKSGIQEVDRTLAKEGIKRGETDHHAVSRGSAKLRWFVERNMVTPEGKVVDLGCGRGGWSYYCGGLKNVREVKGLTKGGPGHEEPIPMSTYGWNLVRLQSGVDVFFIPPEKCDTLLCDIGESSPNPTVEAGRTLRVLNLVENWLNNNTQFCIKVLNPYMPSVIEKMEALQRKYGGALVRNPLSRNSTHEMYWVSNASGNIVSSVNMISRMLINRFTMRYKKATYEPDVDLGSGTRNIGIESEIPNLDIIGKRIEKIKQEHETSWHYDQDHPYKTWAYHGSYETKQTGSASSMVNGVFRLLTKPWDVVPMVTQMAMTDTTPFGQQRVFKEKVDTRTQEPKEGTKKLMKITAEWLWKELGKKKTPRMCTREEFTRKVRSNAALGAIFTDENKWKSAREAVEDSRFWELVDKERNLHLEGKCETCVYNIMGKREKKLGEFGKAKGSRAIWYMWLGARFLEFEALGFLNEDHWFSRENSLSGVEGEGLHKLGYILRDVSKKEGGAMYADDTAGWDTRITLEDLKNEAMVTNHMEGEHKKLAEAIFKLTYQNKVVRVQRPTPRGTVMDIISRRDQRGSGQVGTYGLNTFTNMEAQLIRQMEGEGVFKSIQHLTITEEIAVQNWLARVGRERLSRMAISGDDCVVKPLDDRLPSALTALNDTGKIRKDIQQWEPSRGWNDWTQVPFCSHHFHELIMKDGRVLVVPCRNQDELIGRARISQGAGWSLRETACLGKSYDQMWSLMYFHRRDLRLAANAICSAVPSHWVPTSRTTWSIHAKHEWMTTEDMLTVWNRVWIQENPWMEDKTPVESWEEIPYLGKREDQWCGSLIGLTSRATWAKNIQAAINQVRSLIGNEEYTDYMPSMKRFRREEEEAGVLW

O=[N+]([O-])c1ccc(S(=O)(=O)Nc2nc(-c3ccccc3)cs2)cc1
IC50 [1]: 4.57 µM (active) | IC50 (Genome polyprotein): 59.6 µM (active)

CCOC(=O)c1ccc(NC(=O)CC2C(=O)OCCN2CC)cc1 (stereo unspecified)
AC50 [2]: 4.65 µM (active)

COc1cc(NC(=O)c2ccc(F)cc2)ccc1NC(=O)c1cc2ccccc2o1
IC50 [3]: > 50 µM (inactive) | IC50 [4]: 4.02 µM (active)

CCc1nc2sc3c(=O)cc(O)[nH]c3c2cc1C
IC50 [3]: 24.8 µM (active) | IC50 [4]: > 56.8 µM (not active)

CCOC(=O)C(/C=N/c1cccc(C)c1C)=C(/O)OCC
AC50 (Cytochrome P450 2C9): inconclusive | IC50 (Prothrombin): > 50 µM (not active) | IC50 [5]: 14 µM (not active)

O=C(CSCc1ccc(Cl)cc1)NCc1ccc2c(c1)OCO2
EC50 [6]: 4.2 µM (active)

Nc1c(Br)cc([N+](=O)[O-])cc1[N+](=O)[O-]
AC50 (Cytochrome P450 3A4): 25.1 µM (inconclusive)

COc1ccc2nc(NC(=O)/C=C/c3ccc4c(c3)OCO4)sc2c1
IC50 [3]: 41.5 µM (active) | IC50 [4]: 19.5 µM (active)

CCn1c(C)nc2cc(C(=O)NN=C(S)Nc3ccc(C)cc3)ccc21
IC50 (Prothrombin): > 50 µM (not active) | IC50 (Coagulation factor XII): > 50 µM (inactive)

O=C1c2ccccc2NC(c2cccc(Cl)c2)N1N=C1CCCCCC1 (stereo unspecified)
AC50 (HeLa): 200 µM (active)

O=C(c1ccncc1)N1CC[C@H]2[C@H](CO)Nc3ccc(Br)cc3[C@H]21
AC50 [7]: 18.5 µM (active)

COc1ccc(Cl)cc1NC(=O)c1nnn(CC(=O)Nc2ccc(OC)c(OC)c2)c1N
IC50 [3]: > 50 µM (inactive) | IC50 [4]: > 56.8 µM (not active)

O=C(Cc1cccs1)Nc1nnc(CCc2ccccc2)s1
IC50 (Prothrombin): 25.4 µM (active)

O=c1c2ccccc2nc(N2CCN(c3ccccc3)CC2)n1Cc1ccccc1
EC50 [6]: 9.51 µM (active)

Cc1cc(/C=C2\SC(=S)NC2=O)c(C)n1-c1ccc(O)cc1
EC50 [8]: 1.69 µM (active) | EC50 (Streptococcus): 2.36 µM (active) | AC50 [2]: 15.5 µM (active)

c1ccn(-c2ccc(-c3cc[nH]n3)cc2)c1
AC50 (HeLa): 90.9 µM (active)

CC1=C(C(=O)OCc2ccccc2)C(c2ccc(C3CCCCC3)cc2)NC(=O)N1CCCCCC(=O)O (stereo unspecified)
AC50 (Cytochrome P450 3A4): 7.94 µM (inconclusive)

CC1=NOC(=O)/C1=C\c1ccc2c(c1)OCO2
EC50 [9]: > 300 µM (not active) | EC50 [10]: > 300 µM (not active) | IC50 (Genome polyprotein): 7.17 µM (active)

C[C@H](CO)N1C[C@H](C)[C@@H](CN(C)Cc2ccc(Oc3ccccc3)cc2)Oc2ccc(NS(=O)(=O)c3ccc(F)cc3)cc2CC1=O
AC50 [11]: 40 µM (active) | AC50 [12]: 63.3 µM (active) | AC50 (Paired box protein Pax-8): 6.47 µM (active)

CN(C[C@H]1N[C@@H](CO)[C@@H]1c1ccc(-c2cccc(F)c2)cc1)S(C)(=O)=O
AC50 [11]: 14.9 µM (active) | AC50 [12]: 23.7 µM (active) | AC50 (Paired box protein Pax-8): 10.3 µM (active)

CC[C@H](C)/C=C(C)/C=C/C1=CC2=C(Cl)C(=O)[C@](C)(OC(C)=O)C(=O)C2=CO1 [SCLEROTIORIN]
AC50 [2]: 0.8 µM (active)

O=C(CNc1ccccc1OC(F)F)N1CCc2ccccc21
AC50 (HeLa): 72.1 µM (active) | EC50 (H4): 4.45 µM (active) | EC50 [13]: 6 µM (active) | EC50 [14]: 103 nM (active)

C[C@]12CC[C@@H]3c4ccc(OC(=O)c5ccccc5)cc4CC[C@H]3[C@@H]1CCC2=O
AC50 (Cytochrome P450 3A4): 7.94 µM (inconclusive)

COc1cc(/C=N/O)ccc1OCc1ccccc1Cl
AC50 (HeLa): 40.7 µM (active)

O=[N+]([O-])c1ccc2c3c(cccc13)CC2
AC50 (Cytochrome P450 3A4): 31.6 µM (inconclusive)

CCCC(=O)n1nc(-c2cccnc2)nc1NCc1ccccc1
IC50 (Prothrombin): 0.00538 µM (active)

COC(=O)c1ccccc1NC(=O)C1CC(=O)N(c2ccc(F)cc2)C1 (stereo unspecified)
IC50 (Prothrombin): > 50 µM (not active)
